Results reported in patent publication US9695155B2, “Herbicidal substituted pyrimidinyloxy benzene compounds” (E. I. DU PONT DE NEMOURS AND COMPANY, priority 2013, dated 2017).

Assays:
corn [1] = test: Test C postemergence; assay type: in vivo, Zea mays
Summary of the method: (§1)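 Seeds were sown in loam–sand blend and sprayed preemergence, while plants at 1- to 4-leaf stage (2–18 cm) in peat-based medium received postemergence sprays; test chemicals were formulated in a non-phytotoxic solvent with surfactant. After 13–15 days in a greenhouse, injury was rated visually against controls, 0 (no effect) to 100 (complete control).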

corn [2] = test: Test A postemergence; assay type: in vivo, Zea mays; settings: 0 to 100 scale where 0 is no effect and 100 is complete control
Summary of the method: (§2)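 Visual injury scored 0–100 (100 = complete control) against untreated controls about 10 days after treatment in a greenhouse. Test chemicals, formulated with surfactant in non-phytotoxic solvent, were sprayed on soil preemergence or on 2-10 cm, one- to two-leaf plants postemergence.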

velvetleaf [3] = test: Test A preemergence; assay type: in vivo, Abutilon theophrasti
Summary of the method: as §2

soybean = test: Test C postemergence; assay type: in vivo, Glycine max
Summary of the method: as §1

pigweed [4] = test: Test A preemergence; assay type: in vivo, Amaranthus retroflexus
Summary of the method: as §2

wild oat = test: Test C postemergence; assay type: in vivo, Avena fatua
Summary of the method: as §1

large (Lg) crabgrass [5] = test: Test A postemergence; assay type: in vivo, Digitaria sanguinalis; settings: 0 to 100 scale where 0 is no effect and 100 is complete control
Summary of the method: as §2

kochia = test: Test C postemergence; assay type: in vivo, Kochia scoparia
Summary of the method: as §1

Italian ryegrass = test: Test C postemergence; assay type: in vivo, Lolium multiflorum
Summary of the method: as §1

barnyardgrass = test: Test C postemergence; assay type: in vivo, Echinochloa crus-galli
Summary of the method: as §1

johnsongrass = test: Test C postemergence; assay type: in vivo, Sorghum halepense
Summary of the method: as §1

pigweed [6] = test: Test C postemergence; assay type: in vivo, Amaranthus retroflexus
Summary of the method: as §1

large (Lg) crabgrass [7] = test: Test A preemergence; assay type: in vivo, Digitaria sanguinalis; settings: 0 to 100 scale where 0 is no effect and 100 is complete control
Summary of the method: as §2

pigweed [8] = test: Test A postemergence; assay type: in vivo, Amaranthus retroflexus; settings: 0 to 100 scale where 0 is no effect and 100 is complete control
Summary of the method: as §2

giant foxtail = test: Test C postemergence; assay type: in vivo, Setaria faberii
Summary of the method: as §1

velvetleaf [9] = test: Test A postemergence; assay type: in vivo, Abutilon theophrasti; settings: 0 to 100 scale where 0 is no effect and 100 is complete control
Summary of the method: as §2

waterhemp = test: Test C postemergence; assay type: in vivo, Amaranthus rudis
Summary of the method: as §1

morningglory = test: Test A postemergence; assay type: in vivo, Ipomoea spp.; settings: 0 to 100 scale where 0 is no effect and 100 is complete control
Summary of the method: as §2

[10] = 16 g ai/ha, postemergence, 0 is no effect, 100 is complete control
[11] = 31 g ai/ha, postemergence, visual rating, scale 0 to 100 (0 no effect, 100 complete control), 13 to 15 days
[12] = 125 g ai/ha, postemergence, visual rating, scale 0 to 100 (0 no effect, 100 complete control)
[13] = Postemergence, 62 g ai/ha, scale 0 to 100 (0 no effect, 100 complete control)
[14] = 500 g ai/ha, 0 to 100 scale where 0 is no effect and 100 is complete control

Fc1cccc(Oc2ncc(Cl)cn2)c1-n1cc(Cl)cn1 [Compound 177]
75: Plant response rating (0 to 100), Pigweed (pigweed [6]; [10]) | Waterhemp plant response rating (waterhemp; [11])
70: Plant response rating, Corn (corn [2]; 500 g ai/ha) | Plant response rating (0 to 100), Kochia (kochia; [10]) | Kochia plant response rating (kochia; [11]) | Plant response rating (0 to 100), Waterhemp (waterhemp; [10])
95: Plant response rating, Soybean (soybean; [12]) | Plant response rating, Kochia (kochia; [12]) | Plant response rating, Pigweed (pigweed [6]; [12]) | Plant response rating, Waterhemp (waterhemp; [13])
45: Plant response rating (0 to 100), Soybean (soybean; [10])
0: Oat, Wild plant response rating (wild oat; [11]) | Plant response rating (0 to 100), Ryegrass, Italian (Italian ryegrass; [10]) | Ryegrass, Italian plant response rating (Italian ryegrass; [11]) | Plant response rating, Ryegrass, Italian (Italian ryegrass; [12]) | Plant response rating, Ryegrass, Italian (Italian ryegrass; [13])
80: Velvetleaf plant response rating (0 to 100 scale) (velvetleaf [3]; 125 g ai/ha) | Crabgrass, Large plant response rating (large (Lg) crabgrass [5]; 125 g ai/ha) | Pigweed plant response rating (pigweed [6]; [11])
10: Plant response rating, Corn (corn [1]; [12]) | Plant response rating, Corn (corn [1]; [13]) | Plant response rating, Oat, Wild (wild oat; [13]) | Plant response rating, Barnyardgrass (barnyardgrass; [12]) | Plant response rating, Barnyardgrass (barnyardgrass; [13]) | Plant response rating, Johnsongrass (johnsongrass; [12]) | Foxtail, Giant plant response rating (giant foxtail; [11]) | Plant response rating, Foxtail, Giant (giant foxtail; [13])
90: Plant response rating, Kochia (kochia; [13]) | Morningglory plant response rating (morningglory; 125 g ai/ha)
30: Plant response rating, Oat, Wild (wild oat; [12])
100: Velvetleaf plant response rating (velvetleaf [3]; [14]) | Pigweed plant response rating (0 to 100 scale) (pigweed [4]; 125 g ai/ha) | Pigweed plant response rating (pigweed [4]; [14]) | Plant response rating, Crabgrass, Large (large (Lg) crabgrass [5]; 500 g ai/ha) | Plant response rating, Crabgrass, Large (large (Lg) crabgrass [7]; 125 g ai/ha) | Crabgrass, Large plant response rating (large (Lg) crabgrass [7]; 500 g ai/ha) | Pigweed plant response rating (pigweed [8]; 125 g ai/ha) | Plant response rating, Pigweed (pigweed [8]; 500 g ai/ha) | Velvetleaf plant response rating (velvetleaf [9]; 125 g ai/ha) | Plant response rating, Velvetleaf (velvetleaf [9]; 500 g ai/ha) | Plant response rating, Waterhemp (waterhemp; [12]) | Plant response rating, Morningglory (morningglory; 500 g ai/ha)
20: Plant response rating, Foxtail, Giant (giant foxtail; [12])
40: Corn plant response rating (corn [2]; 125 g ai/ha)
5: Plant response rating (0 to 100), Corn (corn [1]; [10]) | Corn plant response rating (corn [1]; [11]) | Plant response rating (0 to 100), Oat, Wild (wild oat; [10]) | Plant response rating (0 to 100), Barnyardgrass (barnyardgrass; [10]) | Barnyardgrass plant response rating (barnyardgrass; [11]) | Plant response rating (0 to 100), Johnsongrass (johnsongrass; [10]) | Johnsongrass plant response rating (johnsongrass; [11]) | Plant response rating, Johnsongrass (johnsongrass; [13]) | Plant response rating (0 to 100), Foxtail, Giant (giant foxtail; [10])
65: Soybean plant response rating (soybean; [11])
85: Plant response rating, Soybean (soybean; [13]) | Plant response rating, Pigweed (pigweed [6]; [13])
